From publication PMC5218480 (PLoS ONE, 2017)

System: MV-4-11 cells
Experiment: Gene expression microarray analysis (Affymetrix PrimeView) and GSEA
Assay type: cell-based, human
Set-up: RFU PODN (11730768_x_at) / Fold change /veh PODN (11730768_x_at) / RFU LINC00158 (11744669_a_at) / Fold change /veh LINC00158 (11744669_a_at) / RFU DUSP10 (11751237_a_at) / Fold change /veh DUSP10 (11751237_a_at) / RFU ID3 (11757404_x_at) / Fold change /veh ID3 (11757404_x_at) / RFU PLEKHG5 (11737974_s_at) / Fold change /veh PLEKHG5 (11737974_s_at) / RFU LRRC4B (11730491_at) / Fold change /veh LRRC4B (11730491_at) / RFU GIMAP4 (11747438_a_at) / Fold change /veh GIMAP4 (11747438_a_at) / RFU KRT8 (11758183_x_at) / Fold change /veh KRT8 (11758183_x_at) / RFU CNN1 (11734310_a_at) / Fold change /veh CNN1 (11734310_a_at) / RFU VPS37D (11726825_at) / Fold change /veh VPS37D (11726825_at) / RFU C10orf10 (11716522_x_at) / Fold change /veh C10orf10 (11716522_x_at) / RFU KIR2DL2 /// KIR2DL4 /// KIR2DL5A /// KIR2DL5B /// KIR2DS1 /// KIR2DS2 /// KIR2DS3 /// KIR2DS4 /// KIR3DL3 /// KIR3DL3 /// KIR3DS1 (11738374_at) / Fold change /veh KIR2DL2 /// KIR2DL4 /// KIR2DL5A /// KIR2DL5B /// KIR2DS1 /// KIR2DS2 /// KIR2DS3 /// KIR2DS4 /// KIR3DL3 /// KIR3DL3 /// KIR3DS1 (11738374_at) / RFU C1QL1 (11718748_at) / Fold change /veh C1QL1 (11718748_at) / RFU TMPRSS4 (11747572_a_at) / Fold change /veh TMPRSS4 (11747572_a_at) / RFU HAMP (11756126_x_at) / Fold change /veh HAMP (11756126_x_at) / RFU RNFT2 (11725882_a_at) / Fold change /veh RNFT2 (11725882_a_at) / RFU NR4A2 (11747474_a_at) / Fold change /veh NR4A2 (11747474_a_at) / RFU ABCC12 (11746883_a_at) / Fold change /veh ABCC12 (11746883_a_at) / RFU TMEM136 (11760407_x_at) / Fold change /veh TMEM136 (11760407_x_at) / RFU CLDN22 /// WWC2 (11732394_at) / Fold change /veh CLDN22 /// WWC2 (11732394_at) / RFU HLA-DPB1 (11760878_x_at) / Fold change /veh HLA-DPB1 (11760878_x_at) / RFU SPINT1 (11716480_a_at) / Fold change /veh SPINT1 (11716480_a_at) / RFU GAP43 (11754022_s_at) / Fold change /veh GAP43 (11754022_s_at) / RFU A4GNT (11735810_at) / Fold change /veh A4GNT (11735810_at) / RFU PRB3 (11715151_x_at) / Fold change /veh PRB3 (11715151_x_at) / RFU TUBB4B (11761932_at) / Fold change /veh TUBB4B (11761932_at) / RFU CAPN14 (11732068_a_at) / Fold change /veh CAPN14 (11732068_a_at) / RFU TMCC2 (11721928_a_at) / Fold change /veh TMCC2 (11721928_a_at) / RFU IRGQ (11745062_a_at) / Fold change /veh IRGQ (11745062_a_at) / RFU FAM174B (11720279_a_at) / Fold change /veh FAM174B (11720279_a_at) / RFU TMPRSS4 (11748680_a_at) / Fold change /veh TMPRSS4 (11748680_a_at) / RFU FAM212B (11763350_a_at) / Fold change /veh FAM212B (11763350_a_at) / RFU PLEKHG5 (11743358_a_at) / Fold change /veh PLEKHG5 (11743358_a_at) / RFU ZSCAN30 (11745921_a_at) / Fold change /veh ZSCAN30 (11745921_a_at) / RFU CMKLR1 (11741424_a_at) / Fold change /veh CMKLR1 (11741424_a_at) / RFU LOC101060620 /// MAPK8IP1 (11723275_at) / Fold change /veh LOC101060620 /// MAPK8IP1 (11723275_at) / RFU SPTSSB (11747773_x_at) / Fold change /veh SPTSSB (11747773_x_at) / RFU PRSS12 (11739890_at) / Fold change /veh PRSS12 (11739890_at) / RFU BIN1 (11741810_x_at) / Fold change /veh BIN1 (11741810_x_at) / RFU WNT11 (11732464_a_at) / Fold change /veh WNT11 (11732464_a_at) / RFU C10orf10 (11716521_a_at) / Fold change /veh C10orf10 (11716521_a_at) / RFU C5orf56 (11738089_at) / Fold change /veh C5orf56 (11738089_at) / RFU CYB561 (11721691_x_at) / Fold change /veh CYB561 (11721691_x_at) / RFU ANKRD19P (11752326_a_at) / Fold change /veh ANKRD19P (11752326_a_at) / RFU OR2T12 /// OR2T33 /// OR2T8 (11738714_s_at) / Fold change /veh OR2T12 /// OR2T33 /// OR2T8 (11738714_s_at) / RFU VCAN (11748164_a_at) / Fold change /veh VCAN (11748164_a_at) / RFU JSRP1 (11732532_at) / Fold change /veh JSRP1 (11732532_at) / RFU KRTAP10-11 (11738290_x_at) / Fold change /veh KRTAP10-11 (11738290_x_at) / RFU MYO3A (11730013_a_at) / Fold change /veh MYO3A (11730013_a_at) / RFU EBF3 (11725865_a_at) / Fold change /veh EBF3 (11725865_a_at) / RFU CAMK2N1 (11719241_x_at) / Fold change /veh CAMK2N1 (11719241_x_at) / RFU C5orf56 (11738088_a_at) / Fold change /veh C5orf56 (11738088_a_at) / RFU OLFML3 (11715873_a_at) / Fold change /veh OLFML3 (11715873_a_at) / RFU LOC100653217 /// NTM (11731650_a_at) / Fold change /veh LOC100653217 /// NTM (11731650_a_at) / RFU MAPK11 (11762145_a_at) / Fold change /veh MAPK11 (11762145_a_at) / RFU FIZ1 (11724087_x_at) / Fold change /veh FIZ1 (11724087_x_at) / RFU OASL (11726364_x_at) / Fold change /veh OASL (11726364_x_at) / RFU SOX15 (11748057_x_at) / Fold change /veh SOX15 (11748057_x_at) / RFU CD79A (11719716_a_at) / Fold change /veh CD79A (11719716_a_at) / RFU HIST1H1D (11736915_at) / Fold change /veh HIST1H1D (11736915_at) / RFU CASKIN2 (11723855_a_at) / Fold change /veh CASKIN2 (11723855_a_at) / RFU LOC730098 (11760151_x_at) / Fold change /veh LOC730098 (11760151_x_at) / RFU OR4N2 (11742367_at) / Fold change /veh OR4N2 (11742367_at) / RFU PRRT2 (11749266_a_at) / Fold change /veh PRRT2 (11749266_a_at) / RFU SNX32 (11753110_a_at) / Fold change /veh SNX32 (11753110_a_at) / RFU CDHR5 (11726645_a_at) / Fold change /veh CDHR5 (11726645_a_at) / RFU RCAN1 (11760418_a_at) / Fold change /veh RCAN1 (11760418_a_at) / RFU FAM167A (11723789_a_at) / Fold change /veh FAM167A (11723789_a_at) / RFU FAM26E (11764081_at) / Fold change /veh FAM26E (11764081_at) / RFU ISYNA1 (11749810_s_at) / Fold change /veh ISYNA1 (11749810_s_at) / RFU ACY1 (11761880_at) / Fold change /veh ACY1 (11761880_at) / RFU 11764098_at / Fold change /veh 11764098_at / RFU SAMD14 (11745864_x_at) / Fold change /veh SAMD14 (11745864_x_at) / RFU NPB (11741838_a_at) / Fold change /veh NPB (11741838_a_at) / RFU TMPRSS6 (11731388_a_at) / Fold change /veh TMPRSS6 (11731388_a_at) / RFU KRTAP10-2 (11738614_at) / Fold change /veh KRTAP10-2 (11738614_at) / RFU ARHGAP8 /// PRR5-ARHGAP8 (11727945_x_at) / Fold change /veh ARHGAP8 /// PRR5-ARHGAP8 (11727945_x_at) / RFU KRTAP5-7 /// NADSYN1 (11734609_at) / Fold change /veh KRTAP5-7 /// NADSYN1 (11734609_at) / RFU RASL12 (11751679_a_at) / Fold change /veh RASL12 (11751679_a_at) / RFU CDKN2B (11736163_a_at) / Fold change /veh CDKN2B (11736163_a_at) / RFU PRF1 (11729649_at) / Fold change /veh PRF1 (11729649_at) / RFU, ZNF638 /// ZNF638-IT1 / Fold change vs veh, ZNF638 /// ZNF638-IT1 / RFU, PANK3 / Fold change vs veh, PANK3 / RFU, SH3YL1 / Fold change vs veh, SH3YL1 / RFU, ZEB2 / Fold change vs veh, ZEB2 / RFU, NRIP1 / Fold change vs veh, NRIP1 / RFU, PTTG1IP / Fold change vs veh, PTTG1IP / RFU, CAPN2 / Fold change vs veh, CAPN2 / RFU, MED14 / Fold change vs veh, MED14 / RFU, SNORA58 / Fold change vs veh, SNORA58 / RFU, C1orf63 / Fold change vs veh, C1orf63 / RFU, LRRFIP1 / Fold change vs veh, LRRFIP1 / RFU, NDUFAF7 / Fold change vs veh, NDUFAF7 / RFU, SLC12A2 / Fold change vs veh, SLC12A2 / RFU, IBTK / Fold change vs veh, IBTK / RFU, ESF1 / Fold change vs veh, ESF1 / Fold change vs veh, TMEM50B / RFU, TAOK1 / Fold change vs veh, TAOK1 / RFU, ACBD3 / Fold change vs veh, ACBD3 / RFU, TMA16 / Fold change vs veh, TMA16 / RFU, RWDD3 / Fold change vs veh, RWDD3 / RFU, BCAT1 / Fold change vs veh, BCAT1 / RFU, EDEM3 / Fold change vs veh, EDEM3 / RFU, TMEM33 / Fold change vs veh, TMEM33 / RFU, WDR75 / Fold change vs veh, WDR75 / RFU, AHCTF1 / Fold change vs veh, AHCTF1 / RFU, TFRC / Fold change vs veh, TFRC / RFU, ZDHHC17 / Fold change vs veh, ZDHHC17 / RFU, NOM1 / Fold change vs veh, NOM1 / RFU, ARL8B / Fold change vs veh, ARL8B / RFU, ZBTB11 / Fold change vs veh, ZBTB11 / RFU, TAMM41 / Fold change vs veh, TAMM41 / RFU, KIAA1704 /// LOC100996395 / Fold change vs veh, KIAA1704 /// LOC100996395 / RFU, ING1 / Fold change vs veh, ING1 / RFU, TRMT61B / Fold change vs veh, TRMT61B / RFU, FUBP3 / Fold change vs veh, FUBP3 / RFU, TP53 / Fold change vs veh, TP53 / RFU, TNKS2 / Fold change vs veh, TNKS2 / RFU, ZFP14 / Fold change vs veh, ZFP14 / RFU, ACTR2 / Fold change vs veh, ACTR2 / RFU, PPP3R1 / Fold change vs veh, PPP3R1 / RFU, PIK3R1 / Fold change vs veh, PIK3R1 / RFU, HNRNPA1 / Fold change vs veh, HNRNPA1 / RFU, RNF170 / Fold change vs veh, RNF170 / RFU, ZNF28 / Fold change vs veh, ZNF28 / RFU, RNGTT / Fold change vs veh, RNGTT / RFU, OGT / Fold change vs veh, OGT / RFU, BRD1 / Fold change vs veh, BRD1 / RFU, MARS / Fold change vs veh, MARS / RFU, ZNF655 / Fold change vs veh, ZNF655 / RFU, FAHD1 / Fold change vs veh, FAHD1 / RFU, BDP1 / Fold change vs veh, BDP1 / RFU, LRRCC1 / Fold change vs veh, LRRCC1 / RFU, ARID1A / Fold change vs veh, ARID1A / RFU, ZNF146 / Fold change vs veh, ZNF146 / RFU, ZNF330 / Fold change vs veh, ZNF330 / RFU, GPN3 / Fold change vs veh, GPN3 / RFU, C9orf123 / Fold change vs veh, C9orf123 / RFU, N4BP2L2 / Fold change vs veh, N4BP2L2 / RFU, ARFIP1 / Fold change vs veh, ARFIP1 / RFU, FAM179B / Fold change vs veh, FAM179B / RFU, BCL10 / Fold change vs veh, BCL10 / RFU, UHRF1BP1L / Fold change vs veh, UHRF1BP1L / RFU, BET1 / Fold change vs veh, BET1 / RFU, CNOT2 / Fold change vs veh, CNOT2 / RFU, ZNF268 / Fold change vs veh, ZNF268 / Fold change vs veh, ZNF507 / RFU, DGCR2 / Fold change vs veh, DGCR2 / RFU, WDSUB1 / Fold change vs veh, WDSUB1 / Fold change vs veh, HSP90B1 /// MIR3652 / RFU, ADSS / Fold change vs veh, ADSS / RFU, GK / Fold change vs veh, GK / RFU, ZNF148 / Fold change vs veh, ZNF148 / RFU, TAF9 / Fold change vs veh, TAF9 / RFU, SLC1A5 / Fold change vs veh, SLC1A5 / RFU, SLMO2 / Fold change vs veh, SLMO2 / RFU, ABCC4 / Fold change vs veh, ABCC4 / RFU, LOC101060439 /// RAP1B / Fold change vs veh, LOC101060439 /// RAP1B / RFU, RFX7 / Fold change vs veh, RFX7 / RFU, GTPBP10 / Fold change vs veh, GTPBP10 / RFU, CNEP1R1 / Fold change vs veh, CNEP1R1 / RFU, BIVM-ERCC5 /// ERCC5 / Fold change vs veh, BIVM-ERCC5 /// ERCC5 / RFU, ILF3 / Fold change vs veh, ILF3 / RFU 11762660_at / Fold change /veh 11762660_at / RFU VCAN (11757783_s_at) / Fold change /veh VCAN (11757783_s_at) / RFU DDX43 (11728927_at) / Fold change /veh DDX43 (11728927_at) / RFU KRT8 (11758188_x_at) / Fold change /veh KRT8 (11758188_x_at) / RFU NKD1 (11759106_at) / Fold change /veh NKD1 (11759106_at) / RFU SRD5A1 (11742802_a_at) / Fold change /veh SRD5A1 (11742802_a_at) / RFU TPSAB1 /// TPSB2 (11721975_s_at) / Fold change /veh TPSAB1 /// TPSB2 (11721975_s_at) / RFU GSTM3 (11746129_a_at) / Fold change /veh GSTM3 (11746129_a_at) / RFU IL23R (11737362_x_at) / Fold change /veh IL23R (11737362_x_at) / RFU TMEM51 (11727254_a_at) / Fold change /veh TMEM51 (11727254_a_at) / RFU PIWIL2 (11732686_x_at) / Fold change /veh PIWIL2 (11732686_x_at) / RFU ORM1 (11744905_x_at) / Fold change /veh ORM1 (11744905_x_at) / RFU CCDC152 (11743942_at) / Fold change /veh CCDC152 (11743942_at) / RFU ECM1 (11717891_a_at) / Fold change /veh ECM1 (11717891_a_at) / RFU IL23R (11748794_a_at) / Fold change /veh IL23R (11748794_a_at) / RFU TNFAIP8L3 (11732012_x_at) / Fold change /veh TNFAIP8L3 (11732012_x_at) / RFU MBOAT4 (11741988_at) / Fold change /veh MBOAT4 (11741988_at) / RFU 11764193_at / Fold change /veh 11764193_at / RFU TMEM53 (11763286_at) / Fold change /veh TMEM53 (11763286_at) / RFU MAGEB2 (11727129_at) / Fold change /veh MAGEB2 (11727129_at) / RFU TMEM200A (11744735_a_at) / Fold change /veh TMEM200A (11744735_a_at) / RFU CCDC152 (11751479_a_at) / Fold change /veh CCDC152 (11751479_a_at) / RFU FAM211A (11726209_a_at) / Fold change /veh FAM211A (11726209_a_at) / RFU RGS16 (11746705_a_at) / Fold change /veh RGS16 (11746705_a_at) / RFU VCAN (11755009_s_at) / Fold change /veh VCAN (11755009_s_at) / RFU RHOB (11743442_s_at) / Fold change /veh RHOB (11743442_s_at) / RFU RGS16 (11720943_a_at) / Fold change /veh RGS16 (11720943_a_at) / RFU RGS16 (11720944_at) / Fold change /veh RGS16 (11720944_at) / RFU, VPS4B / Fold change vs veh, VPS4B / RFU, CREB1 / Fold change vs veh, CREB1 / RFU, DNAJC13 / Fold change vs veh, DNAJC13 / RFU, GNAQ / Fold change vs veh, GNAQ / RFU, CDK5R1 / Fold change vs veh, CDK5R1 / RFU, ZRANB3 / Fold change vs veh, ZRANB3 / RFU, CUL4A / Fold change vs veh, CUL4A / RFU, CCNY / Fold change vs veh, CCNY / RFU, UFL1 / Fold change vs veh, UFL1 / RFU, COG3 / Fold change vs veh, COG3 / RFU, DIAPH2 / Fold change vs veh, DIAPH2 / RFU, SKA2 / Fold change vs veh, SKA2 / RFU, AFF3 / Fold change vs veh, AFF3 / RFU, LMF1 / Fold change vs veh, LMF1 / RFU, IPO11 / Fold change vs veh, IPO11 / RFU, DFFB / Fold change vs veh, DFFB / RFU, FOXP1 / Fold change vs veh, FOXP1 / RFU, CARD8 / Fold change vs veh, CARD8 / RFU, STRN3 / Fold change vs veh, STRN3 / RFU, ADK / Fold change vs veh, ADK / RFU, RASSF2 / Fold change vs veh, RASSF2 / RFU, WIPF1 / Fold change vs veh, WIPF1 / RFU, LARP1B / Fold change vs veh, LARP1B / RFU, RASA1 / Fold change vs veh, RASA1 / RFU, RB1 / Fold change vs veh, RB1 / RFU, PPFIA1 / Fold change vs veh, PPFIA1 / RFU, MAT2A / Fold change vs veh, MAT2A / RFU, CCT5 / Fold change vs veh, CCT5 / RFU, WDR92 / Fold change vs veh, WDR92 / RFU, CUX1 / Fold change vs veh, CUX1 / RFU, TTC7A / Fold change vs veh, TTC7A / RFU, TMEM135 / Fold change vs veh, TMEM135 / RFU, DEPTOR / Fold change vs veh, DEPTOR / RFU, CPM / Fold change vs veh, CPM / RFU, DNAJB6 / Fold change vs veh, DNAJB6 / RFU, CACNA2D3 / Fold change vs veh, CACNA2D3 / RFU, DTX4 / Fold change vs veh, DTX4 / RFU, TFCP2 / Fold change vs veh, TFCP2 / RFU, GMCL1 /// GMCL1P1 / Fold change vs veh, GMCL1 /// GMCL1P1 / RFU, AEBP2 / Fold change vs veh, AEBP2 / RFU, SNHG1 /// SNORD22 /// SNORD25 /// SNORD26 /// SNORD27 /// SNORD28 /// SNORD29 /// SNORD31 / Fold change vs veh, SNHG1 /// SNORD22 /// SNORD25 /// SNORD26 /// SNORD27 /// SNORD28 /// SNORD29 /// SNORD31 / Fold change (Aza/veh), C12orf56 (ProbeSet 11735607_a_at) / Fold change (ACY-1035/veh), C12orf56 (ProbeSet 11735607_a_at) / Fold change (Aza/veh), FGFR1OP (ProbeSet 11751329_s_at) / Fold change (ACY-1035/veh), FGFR1OP (ProbeSet 11751329_s_at) / Fold change (Aza/veh), VPS36 (ProbeSet 11739960_a_at) / Fold change (ACY-1035/veh), VPS36 (ProbeSet 11739960_a_at) / RFU SYPL1 (11715823_x_at) / Fold change /veh SYPL1 (11715823_x_at) / RFU IGFBP7 (11715501_s_at) / Fold change /veh IGFBP7 (11715501_s_at) / RFU REEP3 (11722064_at) / Fold change /veh REEP3 (11722064_at) / RFU IGLL1 (11728026_x_at) / Fold change /veh IGLL1 (11728026_x_at): dose or concentration left out as unconfirmed
Settings: MV-4-11 cells, 48 hours

Nc1ccc(-c2cccs2)cc1NC(=O)c1ccc2c(c1)cc(C1CC1)n2CCN1CCOCC1 [ACY-1035]
RFU TMPRSS4 (11747572_a_at): 57.40 RFU
